pIC50: −log10 of the molar value. Values belong to the compound of their own block, whether it stands above or below them. The source made the active and inactive calls. No cut-off for these calls is given here.
Key:
A549 [1] = test: Induction of apoptosis in human A549 cells assessed as viable cells at 5 uM measured after 24 hrs by annexin-V/PI staining based flow cytometry analysis (reference value: 97.0%); format: functional; details: read-out: Activity
A549 [2] = test: Induction of apoptosis in human A549 cells assessed as early apoptotic cells at 5 uM measured after 24 hrs by annexin-V/PI staining based flow cytometry analysis (reference value: 1.56%); format: functional
[3] = biological target: T1, Neutral amino acid transporter B(0) (Homo sapiens) (UniProt Q15758); test: Inhibition of ASCT2 in HEK293 cells assessed as reduction in [13C]-Gln uptake at 50 uM relative to control; format: cell-based
T1 sequence (whole entry): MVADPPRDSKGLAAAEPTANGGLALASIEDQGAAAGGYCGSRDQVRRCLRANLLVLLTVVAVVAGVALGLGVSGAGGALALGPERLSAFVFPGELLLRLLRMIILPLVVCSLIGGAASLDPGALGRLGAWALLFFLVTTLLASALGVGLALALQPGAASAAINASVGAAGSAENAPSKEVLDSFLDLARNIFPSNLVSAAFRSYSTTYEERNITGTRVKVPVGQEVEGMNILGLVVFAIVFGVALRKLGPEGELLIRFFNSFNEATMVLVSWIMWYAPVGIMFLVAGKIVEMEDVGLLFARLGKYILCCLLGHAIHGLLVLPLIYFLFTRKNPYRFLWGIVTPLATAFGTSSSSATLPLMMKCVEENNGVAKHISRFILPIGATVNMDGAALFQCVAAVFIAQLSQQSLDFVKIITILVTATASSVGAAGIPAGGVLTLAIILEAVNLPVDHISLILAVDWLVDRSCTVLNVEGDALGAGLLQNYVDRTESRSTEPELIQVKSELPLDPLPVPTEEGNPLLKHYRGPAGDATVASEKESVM

A549 [4] = test: Induction of apoptosis in human A549 cells assessed as late apoptotic cells at 10 uM measured after 24 hrs by annexin-V/PI staining based flow cytometry analysis (reference value: 1.34%); format: functional
[5] = biological target: T1, Neutral amino acid transporter B(0) (Homo sapiens); test: Inhibition of ASCT2 in human A549 cells assessed as reduction in [13C]-Gln uptake at 50 uM relative to control; format: cell-based
A549 [6] = test: Antiproliferative activity against human A549 cells assessed as reduction in cell viability after 72 hrs by MTT assay; format: functional, cell-based; details: A549, 72 h
A549 [7] = test: Induction of apoptosis in human A549 cells assessed as necrotic cells at 5 uM measured after 24 hrs by annexin-V/PI staining based flow cytometry analysis (reference value: 0.13%); format: functional
A549 [8] = test: Induction of apoptosis in human A549 cells assessed as necrotic cells at 10 uM measured after 24 hrs by annexin-V/PI staining based flow cytometry analysis (reference value: 0.13%); format: functional
A549 [9] = test: Induction of apoptosis in human A549 cells assessed as viable cells at 10 uM measured after 24 hrs by annexin-V/PI staining based flow cytometry analysis (reference value: 97.0%); format: functional; details: read-out: Activity
A549 [10] = test: Induction of apoptosis in human A549 cells assessed as early apoptotic cells at 10 uM measured after 24 hrs by annexin-V/PI staining based flow cytometry analysis (reference value: 1.56%); format: functional
A549 [11] = test: Induction of apoptosis in human A549 cells assessed as late apoptotic cells at 5 uM measured after 24 hrs by annexin-V/PI staining based flow cytometry analysis (reference value: 1.34%); format: functional
[12] = Metabolic stability in rat liver microsomes assessed as intrinsic clearance; format: ADME, Microsome; details: read-out: CLH
[13] = Metabolic stability in rat liver microsomes assessed as half life; format: ADME, Microsome
[14] = Half life in Sprague-Dawley rat at 10 mg/kg, ip incubated for 24 hrs by LC-MS/MS analysis; format: ADME, organism-based; details: in vivo
[15] = MRT (0 to infinity) in Sprague-Dawley rat at 10 mg/kg, ip incubated for 24 hrs by LC-MS/MS analysis; format: ADME, organism-based; details: in vivo
[16] = biological target: T2, Sodium-coupled neutral amino acid symporter 1 (Homo sapiens) (UniProt Q9H2H9); test: Inhibition of SNAT1 (unknown origin) overexpressed in human A549 cells assessed as reduction in [13C]-Gln uptake preincubated for 5 mins followed by substrate addition and measured after 15 mins; format: cell-based; details: time 20.0 min
T2 sequence (whole entry): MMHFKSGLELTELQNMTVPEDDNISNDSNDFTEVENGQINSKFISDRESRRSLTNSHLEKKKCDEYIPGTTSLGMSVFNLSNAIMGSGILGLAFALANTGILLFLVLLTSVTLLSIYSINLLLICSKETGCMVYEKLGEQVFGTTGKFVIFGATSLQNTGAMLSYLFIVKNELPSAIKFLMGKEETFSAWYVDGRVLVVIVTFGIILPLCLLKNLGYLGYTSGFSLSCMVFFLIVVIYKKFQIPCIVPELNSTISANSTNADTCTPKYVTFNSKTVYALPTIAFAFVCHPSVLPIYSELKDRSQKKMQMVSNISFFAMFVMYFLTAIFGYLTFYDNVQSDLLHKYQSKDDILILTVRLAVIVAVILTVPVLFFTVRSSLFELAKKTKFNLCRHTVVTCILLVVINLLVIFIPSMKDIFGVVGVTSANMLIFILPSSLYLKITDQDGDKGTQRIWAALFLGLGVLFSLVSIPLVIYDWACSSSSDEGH

[17] = Tmax in Sprague-Dawley rat at 10 mg/kg, ip incubated for 24 hrs by LC-MS/MS analysis; format: ADME, organism-based; details: in vivo
[18] = biological target: Large neutral amino acids transporter small subunit 1 (Homo sapiens) (UniProt Q01650); test: Inhibition of LAT1 (unknown origin) overexpressed in human A549 cells assessed as reduction in [13C]-Gln uptake preincubated for 5 mins followed by substrate addition and measured after 15 mins; format: cell-based; details: time 20.0 min
[19] = Cmax in Sprague-Dawley rat at 10 mg/kg, ip incubated for 24 hrs by LC-MS/MS analysis; format: ADME, organism-based; details: in vivo
[20] = biological target: T3, Sodium-coupled neutral amino acid symporter 2 (Homo sapiens) (UniProt Q96QD8); test: Inhibition of SNAT2 (unknown origin) overexpressed in HEK293 cells assessed as reduction in [13C]-Gln uptake preincubated for 5 mins followed by substrate addition and measured after 15 mins; format: cell-based; details: time 20.0 min
T3 sequence (whole entry): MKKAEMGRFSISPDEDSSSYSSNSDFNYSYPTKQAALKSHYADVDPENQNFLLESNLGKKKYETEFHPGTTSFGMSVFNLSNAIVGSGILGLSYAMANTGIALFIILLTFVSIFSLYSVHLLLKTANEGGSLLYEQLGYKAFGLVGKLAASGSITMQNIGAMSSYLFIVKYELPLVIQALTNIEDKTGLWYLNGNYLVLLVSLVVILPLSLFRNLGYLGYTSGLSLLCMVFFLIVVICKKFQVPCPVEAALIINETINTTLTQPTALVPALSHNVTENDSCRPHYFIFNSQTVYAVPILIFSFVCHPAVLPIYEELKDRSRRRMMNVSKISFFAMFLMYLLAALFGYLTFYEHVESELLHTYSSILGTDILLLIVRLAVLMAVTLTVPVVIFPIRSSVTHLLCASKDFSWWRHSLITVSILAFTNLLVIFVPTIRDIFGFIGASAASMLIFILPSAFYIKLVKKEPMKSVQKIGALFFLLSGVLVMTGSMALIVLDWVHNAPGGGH

[21] = AUC (0 to infinity) in Sprague-Dawley rat at 10 mg/kg, ip incubated for 24 hrs by LC-MS/MS analysis; format: ADME, organism-based; details: in vivo
[22] = Apparent clearance in Sprague-Dawley rat at 10 mg/kg, ip incubated for 24 hrs by LC-MS/MS analysis; format: ADME, organism-based; details: in vivo
[23] = Bioavailability in Sprague-Dawley rat at 10 mg/kg, ip incubated for 24 hrs by LC-MS/MS analysis; format: ADME, organism-based; details: in vivo
[24] = AUC (0 to t) in Sprague-Dawley rat at 10 mg/kg, ip incubated for 24 hrs by LC-MS/MS analysis; format: ADME, organism-based; details: in vivo
Cell membrane = test: Induction of mitochondrial membrane potential loss in human A549 cells assessed as […] aggregates at 10 uM incubated for 24 hrs by JC-1 staining based flow cytometry analysis (reference value: 93.8%); format: cell membranes
[25] = biological target: Large neutral amino acids transporter small subunit 1 (Homo sapiens) (UniProt Q01650); test: Inhibition of LAT1 (unknown origin) overexpressed in HEK293 cells assessed as reduction in [13C]-Gln uptake preincubated for 5 mins followed by substrate addition and measured after 15 mins; format: cell-based; details: time 20.0 min
[26] = biological target: T2, Sodium-coupled neutral amino acid symporter 1 (Homo sapiens); test: Inhibition of SNAT1 (unknown origin) overexpressed in HEK293 cells assessed as reduction in [13C]-Gln uptake preincubated for 5 mins followed by substrate addition and measured after 15 mins; format: cell-based; details: time 20.0 min
[27] = Apparent volume of distribution with respect to the bioavailability in Sprague-Dawley rat at 10 mg/kg, ip incubated for 24 hrs by LC-MS/MS analysis; format: ADME, organism-based; details: in vivo, read-out: Vc/F

Sequence of Large neutral amino acids transporter small subunit 1 (Homo sapiens) (Q01650 whole entry): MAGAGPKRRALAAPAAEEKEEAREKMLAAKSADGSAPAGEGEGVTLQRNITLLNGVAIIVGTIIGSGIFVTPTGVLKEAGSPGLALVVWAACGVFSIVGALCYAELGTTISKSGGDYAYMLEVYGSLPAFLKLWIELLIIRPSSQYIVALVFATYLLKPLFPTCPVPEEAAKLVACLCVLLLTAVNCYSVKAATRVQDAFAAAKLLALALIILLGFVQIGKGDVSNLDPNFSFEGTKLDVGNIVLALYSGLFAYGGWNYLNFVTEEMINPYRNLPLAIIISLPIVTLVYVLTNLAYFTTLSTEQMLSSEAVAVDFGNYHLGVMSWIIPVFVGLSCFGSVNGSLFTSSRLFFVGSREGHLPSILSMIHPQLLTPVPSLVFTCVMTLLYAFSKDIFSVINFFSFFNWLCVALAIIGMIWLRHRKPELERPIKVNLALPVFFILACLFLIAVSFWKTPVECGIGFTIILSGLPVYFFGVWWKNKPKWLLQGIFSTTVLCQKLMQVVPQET

Structure (SMILES): Cc1cccc(COc2ccccc2CN(CC[C@H](N)C(=O)O)Cc2ccccc2OCc2cccc(C)c2)c1
- microsomal CLint [12]: 492 µL/min/mg
- half-life [14]: 5.22 h
- MRT inf [15]: 4.7 h
- inhibition [16]: Active
- inhibition [3]: 75.1%
- Activity (A549 [4]): 4.04%
- Tmax [17]: 0.19 h
- inhibition [18]: Active
- Cmax [19]: 1250 ng/mL
- inhibition [20]: inactive
- AUC(0-inf) [21]: 3670 ng·h/mL
- half-life [13]: 0.0845 h
- CL/F [22]: 45.8 mL/min/kg
- inhibition [5]: 68.6%
- bioavailability [23]: 100%
- pIC50 (A549 [6]): 4.69
- AUC(0-t) at 24 h [24]: 3570 ng·h/mL
- Activity (Cell membrane): 98.7%
- inhibition [25]: Active
- Activity (A549 [8]): 2.01%
- viability at 10 µM (A549 [9]): 92.4%
- inhibition [26]: inactive
- Activity (A549 [10]): 1.51%
- Vd/F [27]: 20.4 L/kg

Structure (SMILES): Cc1ccc(OCC#Cc2ccc(Cl)cc2)c(CN(CC[C@H](N)C(=O)O)Cc2cc(C)ccc2OCC#Cc2ccc(Cl)cc2)c1
- inhibition [3]: 67.7%
- inhibition [5]: 61.1%
- pIC50 (A549 [6]): 4.59

Structure (SMILES): N[C@@H](CCN(Cc1ccc(Br)cc1OCC#Cc1ccccc1)Cc1ccc(Br)cc1OCC#Cc1ccccc1)C(=O)O
- microsomal CLint [12]: 49.3 µL/min/mg
- inhibition [3]: 70.3%
- half-life [13]: 0.493 h
- inhibition [5]: 77%
- pIC50 (A549 [6]): 4.87

Structure (SMILES): Cc1ccccc1C#CCOc1ccccc1CN(CC[C@H](N)C(=O)O)Cc1ccccc1OCC#Cc1ccccc1C
- inhibition [3]: 92.4%
- inhibition [5]: 96.4%
- pIC50 (A549 [6]): 4.84

Structure (SMILES): COc1ccc(CN(CC[C@H](N)C(=O)O)Cc2ccc(OC)cc2OCC#Cc2ccccc2)c(OCC#Cc2ccccc2)c1
- inhibition [3]: 75.7%
- inhibition [5]: 80.6%
- pIC50 (A549 [6]): 4.59

More lines, main results first:

- inhibition [3]: 38.6%
- inhibition [5]: 43.2%
- pIC50 (A549 [6]): 4.88
Structure (SMILES): CC(C)(C)c1ccc(C#CCOc2ccccc2CN(CC[C@H](N)C(=O)O)Cc2ccccc2OCC#Cc2ccc(C(C)(C)C)cc2)cc1
- viability at 5 µM (A549 [1]): 72.8%
- Activity (A549 [2]): 20.6%
- Activity (A549 [4]): 8.24%
- Activity (A549 [7]): 0.58%
- Activity (A549 [8]): 0.33%
- viability at 10 µM (A549 [9]): 65%
- Activity (A549 [10]): 26.5%
- Activity (A549 [11]): 6.06%

- microsomal CLint [12]: 23.8 µL/min/mg
- inhibition [3]: 60.2%
- half-life [13]: 1.81 h
- inhibition [5]: 53.4%
- pIC50 (A549 [6]): 4.99
Structure (SMILES): N[C@@H](CCN(Cc1c(OCC#Cc2ccccc2)ccc2ccccc12)Cc1c(OCC#Cc2ccccc2)ccc2ccccc12)C(=O)O

- inhibition [3]: 55%
- inhibition [5]: 57.2%
- pIC50 (A549 [6]): < 4.30
Structure (SMILES): N[C@@H](CCN(Cc1ccccc1OCC#Cc1ccc(C(F)(F)F)cc1)Cc1ccccc1OCC#Cc1ccc(C(F)(F)F)cc1)C(=O)O

- inhibition [3]: 86.3%
- inhibition [5]: 80.8%
- pIC50 (A549 [6]): 4.86
Structure (SMILES): Cc1cc(C)cc(C#CCOc2ccccc2CN(CC[C@H](N)C(=O)O)Cc2ccccc2OCC#Cc2cc(C)cc(C)c2)c1

— ChEMBL document CHEMBL5537180, “Discovery of Novel Aminobutanoic Acid-Based ASCT2 Inhibitors for the Treatment of Non-Small-Cell Lung Cancer” (J Med Chem, 2024)
